Read-outs that look alike come from different tables or passages of the source.
System: α7 integrin (LacZ reporter in α7LacZ+/− myoblasts)
Experiment: qHTS of the LOPAC library and MLSMR (online screen, α7LacZ+/− myoblasts)
Conditions: for activation at 0.307 µM / activation at 1.53 µM / activation at 7.66 µM / activation at 38.3 µM / Emax / EC50: Mus musculus, Myoblast; for activation at 0.307 µM: read-out: Activity at 0.307 uM [%] **; for activation at 1.53 µM: read-out: Activity at 1.530 uM [%] **; for activation at 7.66 µM: read-out: Activity at 7.660 uM [%] **; for activation at 38.3 µM: read-out: Activity at 38.30uM [%] **; for EC50: read-out: Fit LogAC50 (converted)
[1] = 48 h, read-out: Fit Infinite Activity [%]

| Compound | activation at 0.307 µM (48 h) | activation at 1.53 µM (48 h) | activation at 7.66 µM (48 h) | activation at 38.3 µM (48 h) | Emax [1] | Emax (read-out: Max Response [%]) | EC50 | Score |
| --- | --- | --- | --- | --- | --- | --- | --- | --- |
| CC1(C)Cc2c(cnn2-c2cccc(F)c2)C(NC(=O)CCc2cnccn2)C1 (stereo not shown) [Compound 154] | -36.1% | -14.4% | 17.9% | 38.9% | 47.5% | 38.9% | – | – |
| CCc1nnc(NC(=O)c2ccc(S(=O)(=O)NCC(C)C)cc2)s1 [Compound 66] | 16.2% | 8.68% | 32.8% | 225% | 227% | 225% | 12.6 µM | – |
| O=C(CNC(=O)c1cccc(F)c1)N/N=C/c1cc(Br)ccc1OCc1ccccc1 [Compound 216] | 8.28% | 20.8% | 44% | 71.7% | 94.4% | 71.7% | 10 µM | – |
| COc1cc(NC(=O)C2C3C=CC(C3)C2C(=O)O)ccc1NC(=O)c1ccccc1 (stereo not shown) [Compound 142] | -17.1% | -18.7% | 16.8% | 68.9% | 71.2% | 68.9% | – | – |
| O=C(O)CCn1cc(/C=C2/NC(=S)N(c3ccccc3)C2=O)c(-c2ccccc2)n1 [Compound 65] | 8.21% | 2.59% | 27.2% | 464% | 501% | 464% | 20 µM | 45 |
| O=c1oc2c(-c3cccc(F)c3)cc(O)cc2s1 [Compound 23] | 12.6% | 18.8% | 87.3% | 98.9% | 98.5% | – | 3.98 µM | – |
| Cc1cc(NC(=O)c2ccc(Cl)cc2Cl)no1 [Compound 19] | -20.1% | 15% | 43.9% | 52.1% | 52.7% | – | 1.41 µM | – |
| COC(=O)C1=NNC2(C)C(=O)N(c3ccc(C)cc3)C(=O)C12 (stereo not shown) [Compound 177] | 1.31% | 0.295% | 16.2% | 71.1% | 71.5% | 71.1% | 10 µM | – |
| Cc1ccc(NC(=O)C2CCCCC2C(=O)O)cc1C (stereo not shown) [Compound 114] | -6.72% | -1.25% | 17.2% | 135% | 135% | 135% | 11.2 µM | – |
| COc1cc(/C=C/CN2CCN(Cc3ccc(C)o3)C(CCO)C2)ccc1O (stereo not shown) [Compound 42] | 20.1% | 0% | 32.1% | 481% | 485% | – | 14.1 µM | – |
| Cc1cc(N2CCOCC2)nc2ccc(N/C(S)=N/Cc3ccc4c(c3)OCO4)cc12 [Compound 122] | 2.5% | 11.5% | 54% | 107% | 128% | 107% | 10 µM | – |

— patent publication US9980943B2, “Methods of treating muscular dystrophy” (BOARD OF REGENTS OF THE NEVADA SYSTEM OF HIGHER EDUCATION, …, priority 2013, dated 2018)
